In the supplement of paper PMC11208160:

Assay: recombinant UMI read abundance after kanamycin selection (control-corrected) (log10(CPM+1)); higher = more efficient recombination; extreme values may be limits of the assay; sequences stand for … in AGTGCAGAGAAAATCGGCCAGTTTTCTCTGCCTGCAGTCCGCATGCCGTGGGACCCCTTGGGTTCTAACCTGTTGCCTAGATTTATGCAGCGGACTGCCTTTCTCCCAAAGTGATAAACCGG…AGGTTGGTTTCACT; site = the 11-nt donor
Method in brief: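 For the IS621 bridge recombinase, a pooled Escherichia coli screen tested donor and donor-binding-loop pairs. Cells received the pair library together with a target plasmid encoding a fixed target and T7-inducible recombinase, then went onto IPTG (0.07 mM) plus kanamycin or unselected plates in duplicate. After PCR across the donor–target junction and sequencing, recombinant UMI counts were normalized to CPM, averaged, and scaled by control-derived factors. Each value is given as log10(CPM+1).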
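Further: IS621 bridge recombinase in Escherichia coli cells against a fixed T5 target plasmid.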

Question: Which “recombinant UMI read abundance (log10)” value does the source give for “TACTGAGCATGGACCGGTTTTCCCGGTAATCCGTATTTGGG (site TAATGAGCTCC)” here?
Answer: Its value is 0.0256.

Question: Which “recombinant UMI read abundance (log10)” value does the source give for “TACTGAGCATGGACCGGTTTTCCCGGTAATCCGTATTTGGG (site TACTGAGCTCC)” here?
Answer: The value was 0.356.

Question: With “TACTGAGCATGGACCGGTTTTCCCGGTAATCCGTATTTGGG (site TAGTGAGCTCC)” as the sequence, how does the “recombinant UMI read abundance (log10)” value read?
Answer: Its value is 0.0147.

Question: Which “recombinant UMI read abundance (log10)” value does the source give for “TACTGAGCATGGACCGGTTTTCCCGGTAATCCGTATTTGGG (site TATTGAGCTCC)” here?
Answer: Its value is 0.

Question: For “TACTGCCCATGGACCGGTTTTCCCGGTAATCCGTATTTGGA (site TACTGCCCTTC)”, which “recombinant UMI read abundance (log10)” value is on record?
Answer: Its value is 0.00999.

Question: For “TACTGGGCATGGACCGGTTTTCCCGGTAATCCGTATTTGAA (site TACTGGGCTTT)”, which “recombinant UMI read abundance (log10)” value is on record?
Answer: Its value is 0.637.

Question: Which “recombinant UMI read abundance (log10)” value does the source give for “TACTTGACATGGACCGGTTTTCCCGGTAATCCGTATTTGCA (site TACTTGACTAG)” here?
Answer: Its value is 0.

Question: With “TACTTGACATGGACCGGTTTTCCCGGTAATCCGTATTTGCA (site TACTTGACTCG)” as the sequence, how does the “recombinant UMI read abundance (log10)” value read?
Answer: The value was 0.0381.

Question: For “TACTTGACATGGACCGGTTTTCCCGGTAATCCGTATTTGCA (site TACTTGACTGG)”, which “recombinant UMI read abundance (log10)” value is on record?
Answer: Its value is 0.

Question: With “TACTTGACATGGACCGGTTTTCCCGGTAATCCGTATTTGCA (site TACTTGACTTG)” as the sequence, how does the “recombinant UMI read abundance (log10)” value read?
Answer: The value was 0.591.

Question: Which “recombinant UMI read abundance (log10)” value does the source give for “TACTTGACATGGACCGGTTTTCCCGGTAATCCGTATTTGCT (site AACTTGACTAG)” here?
Answer: Its value is 0.

Question: For “TACTTGACATGGACCGGTTTTCCCGGTAATCCGTATTTGCT (site CACTTGACTAG)”, which “recombinant UMI read abundance (log10)” value is on record?
Answer: Its value is 0.342.

Question: Which “recombinant UMI read abundance (log10)” value does the source give for “TACTTGACATGGACCGGTTTTCCCGGTAATCCGTATTTGCT (site GACTTGACTAG)” here?
Answer: The value was 0.00311.

Question: Which “recombinant UMI read abundance (log10)” value does the source give for “TACTTGACATGGACCGGTTTTCCCGGTAATCCGTATTTGCT (site TAATTGACTAG)” here?
Answer: The value was 0.201.

Question: Which “recombinant UMI read abundance (log10)” value does the source give for “TACTTGACATGGACCGGTTTTCCCGGTAATCCGTATTTGCT (site TACATGACTAG)” here?
Answer: The value was 0.0307.

Question: With “TACTTGACATGGACCGGTTTTCCCGGTAATCCGTATTTGCT (site TACCTGACTAG)” as the sequence, how does the “recombinant UMI read abundance (log10)” value read?
Answer: The value was 0.89.

Question: For “TACTTGACATGGACCGGTTTTCCCGGTAATCCGTATTTGCT (site TACGTGACTAG)”, which “recombinant UMI read abundance (log10)” value is on record?
Answer: The value was 0.16.

Question: Which “recombinant UMI read abundance (log10)” value does the source give for “TACTTGACATGGACCGGTTTTCCCGGTAATCCGTATTTGCT (site TACTAGACTAG)” here?
Answer: The value was 0.43.

Question: Which “recombinant UMI read abundance (log10)” value does the source give for “TACTTGACATGGACCGGTTTTCCCGGTAATCCGTATTTGCT (site TACTCGACTAG)” here?
Answer: Its value is 0.277.

Question: With “TACTTGACATGGACCGGTTTTCCCGGTAATCCGTATTTGCT (site TACTGGACTAG)” as the sequence, how does the “recombinant UMI read abundance (log10)” value read?
Answer: Its value is 0.46.

Question: With “TACTTGACATGGACCGGTTTTCCCGGTAATCCGTATTTGCT (site TACTTAACTAG)” as the sequence, how does the “recombinant UMI read abundance (log10)” value read?
Answer: The value was 0.

Question: Which “recombinant UMI read abundance (log10)” value does the source give for “TACTTGACATGGACCGGTTTTCCCGGTAATCCGTATTTGCT (site TACTTCACTAG)” here?
Answer: Its value is 0.00555.

Question: For “TACTTGACATGGACCGGTTTTCCCGGTAATCCGTATTTGCT (site TACTTGACTAA)”, which “recombinant UMI read abundance (log10)” value is on record?
Answer: Its value is 0.00336.

Question: With “TACTTGACATGGACCGGTTTTCCCGGTAATCCGTATTTGCT (site TACTTGACTAC)” as the sequence, how does the “recombinant UMI read abundance (log10)” value read?
Answer: The value was 0.0348.

Question: With “TACTTGACATGGACCGGTTTTCCCGGTAATCCGTATTTGCT (site TACTTGACTAG)” as the sequence, how does the “recombinant UMI read abundance (log10)” value read?
Answer: The value was 1.12.

Question: For “TACTTGACATGGACCGGTTTTCCCGGTAATCCGTATTTGCT (site TACTTGACTAT)”, which “recombinant UMI read abundance (log10)” value is on record?
Answer: Its value is 0.00796.

Question: With “TACTTGACATGGACCGGTTTTCCCGGTAATCCGTATTTGCT (site TACTTGACTCG)” as the sequence, how does the “recombinant UMI read abundance (log10)” value read?
Answer: The value was 0.

Question: Which “recombinant UMI read abundance (log10)” value does the source give for “TACTTGACATGGACCGGTTTTCCCGGTAATCCGTATTTGCT (site TACTTGACTGG)” here?
Answer: Its value is 0.

Question: Which “recombinant UMI read abundance (log10)” value does the source give for “TACTTGACATGGACCGGTTTTCCCGGTAATCCGTATTTGCT (site TACTTGACTTG)” here?
Answer: The value was 0.00876.

Question: For “TACTTGACATGGACCGGTTTTCCCGGTAATCCGTATTTGCT (site TACTTGCCTAG)”, which “recombinant UMI read abundance (log10)” value is on record?
Answer: The value was 0.

Question: Which “recombinant UMI read abundance (log10)” value does the source give for “TACTTGACATGGACCGGTTTTCCCGGTAATCCGTATTTGCT (site TACTTGGCTAG)” here?
Answer: Its value is 0.00865.

Question: With “TACTTGACATGGACCGGTTTTCCCGGTAATCCGTATTTGCT (site TACTTGTCTAG)” as the sequence, how does the “recombinant UMI read abundance (log10)” value read?
Answer: The value was 0.0219.
